Measurements taken from the supplement of paper PMC10307832.

Assays:
Assay in all cases: relative viability (nuclei count vs DMSO), 5 days (fraction); higher = more cells survive
[1] = compound: C[C@@H](N)c1ccc(C(=O)Nc2ccnc3[nH]ccc23)cc1 + Nc1ncn([C@H]2C[C@H](O)[C@@H](CO)O2)c(=O)n1 [Decitabine] (partner 2 µM)
Outline: (§1)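 Five library-drug doses in √10 steps were combined with a fixed anchor-drug dose, or a single drug was given alone, by pin tool to lung cancer cell lines in 1536-well plates the day after seeding. Nuclei were stained and counted after 5 days. Relative viability is the nuclei count in treated wells over that in vehicle wells, taken as the median of duplicate plates.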

[2] = compound: C[C@@H](N)c1ccc(C(=O)Nc2ccnc3[nH]ccc23)cc1 + Cc1cc(Nc2cc(N3CCN(C)CC3)nc(Sc3ccc(NC(=O)C4CC4)cc3)n2)n[nH]1 [Tozasertib] (partner 0.1 µM)
Outline: as §1

[3] = compound: C1CNCCC1C2=CC(=NN2)C3=CC=NC=C3 + COc1cc2c(Oc3ccc(NC(=O)C4(C(=O)Nc5ccc(F)cc5)CC4)cc3F)ccnc2cc1OCCCN1CCOCC1 [Foretinib] (partner 0.25 µM)
Outline: as §1

[4] = compound: C1CNCCC1C2=CC(=NN2)C3=CC=NC=C3 + CS(=O)(=O)CCNCc1ccc(-c2ccc3ncnc(Nc4ccc(OCc5cccc(F)c5)c(Cl)c4)c3c2)o1 [Lapatinib] (partner 2 µM)
Outline: as §1

Cell Line	relative viability ([1]; first compound 0.04 µM)	relative viability ([1]; first compound 0.1265 µM)	relative viability ([1]; first compound 0.4 µM)	relative viability ([1]; first compound 1.265 µM)	relative viability ([1]; first compound 4 µM)	relative viability ([2]; first compound 0.04 µM)	relative viability ([2]; first compound 0.1265 µM)	relative viability ([2]; first compound 0.4 µM)	relative viability ([2]; first compound 1.265 µM)	relative viability ([2]; first compound 4 µM)	relative viability ([3]; first compound 0.08 µM)	relative viability ([3]; first compound 0.8 µM)	relative viability ([3]; first compound 2.53 µM)	relative viability ([3]; first compound 8 µM)	relative viability ([4]; first compound 0.08 µM)	relative viability ([4]; first compound 0.8 µM)	relative viability ([4]; first compound 2.53 µM)	relative viability ([4]; first compound 8 µM)
COR-L23	0.385	0.441	0.421	0.393	0.305	0.232	0.188	0.204	0.202	0.144	1.07	0.946	1.01	0.931	0.989	1.3	0.98	1.01
COR-L 105	0.651	0.674	0.627	0.495	0.526	0.359	0.355	0.349	0.296	0.177	1.22	1.07	1.13	1.67	0.32	0.34	0.389	0.363
EKVX	0.385	0.331	0.358	0.329	0.385	0.421	0.379	0.494	0.44	0.438	0.902	0.437	1.5	0.716	0.211	0.184	0.208	0.208
EMC-BAC-2	1	0.968	1.11	1.04	0.903	0.252	0.276	0.3	0.271	0.24	0.937	1.05	1.16	0.843	0.682	0.927	0.897	0.87
EPLC-272H	0.461	0.41	0.481		0.492	0.304	0.322	0.531	0.287	0.188	0.647	0.674	0.678	0.706	0.92	1	1.14	1.03
H3255	0.603	0.747	0.67	0.67	0.481	0.568	0.632	0.779	0.824	0.613	0.861	0.983	1.03	0.9	0.265	0.255	0.262	0.261
HARA	0.54	0.672	0.52	0.611	0.401		0.101	0.0806		0.087	0.842	1.21	0.993	0.707	0.755	0.874	0.736	0.701
HCC-15	0.698	0.613	0.623	0.612	0.514	0.519	0.332	0.507		0.657	0.899	1.18	1.07	1.03	0.849	0.953	0.871	0.823
HCC-78	0.772	0.782	0.83	0.725	0.62	0.51	0.405	0.733	0.415	0.633	0.532	0.507	0.602	0.536	0.723		0.871	0.86
HCC-366	0.323	0.331	0.353	0.405	0.343	0.141	0.169	0.132		0.229	0.95	0.946	0.905	1.03	0.864	1.13	1.04	1.04
HCC-827		0.33	0.379	0.227	0.331	0.449	0.445	0.447	0.411	0.412	1.04	1.07	1.01	1.12	0.207	0.174	0.22	0.166
HOP-62	0.21	0.225	0.241	0.206	0.207	0.328	0.351	0.369	0.398	0.297	1.06	1.31	1.18	1.09	1.09	1.17	1.1	1.12
LC-2-ad	0.935	0.775	0.827	0.775	0.563	0.469	0.523	0.512		0.441		0.956	0.997	0.948	1.04	1.05	1	0.914
LCLC-97TM1	0.254	0.263	0.249	0.218	0.304	0.208	0.227	0.34	0.343	0.279	0.946	0.888	0.938	0.904	1.05	1.39	1.59	1.04
LK-2	0.351	0.287	0.359	0.237	0.352	0.165		0.17		0.171	1.05	1.27	1.03	1.42	0.768	0.791	1.06	0.83
LOU-NH91	0.755	0.79	0.78	0.69	0.577	0.556	0.609	0.607	0.504	0.417	0.944	0.911	1	0.936	0.766	0.739	0.826	0.854
LU99A		1.03	0.824	0.773	0.598		0.278	0.234	0.227	0.227	0.766	0.87	0.864	0.797	0.974	1.18	1.28	1.1
LXF-289	0.406	0.362	0.362	0.373	0.331	0.147	0.185	0.194	0.168	0.175	0.978	1.03	0.989	0.918	0.934	0.937	0.864	0.91
NCI-H23	0.296	0.295	0.363		0.301	0.377	0.358	0.425		0.501	0.766	1.19	1.25	1.11	1.15	1.34	1.49	1.22
